Results as given in ChEMBL document CHEMBL3046914, “Synthesis and anticancer effects of pongamol derivatives on mitogen signaling and cell cycle kinases” (Med Chem Res, 2012).
Active and inactive are the calls of the source. The calls are words filed in the database; no cut-off is given here.

Experiments:
[1] = Cytotoxicity against fibroblasts
[2] = tested on: IMR-32; assay: Cell cycle arrest in Homo sapiens (human) IMR32 cells assessed as decrease of G2-M phase cell accumulation at 20 to 200 uM by FACS analysis; format: functional, cell-based
[3] = tested on: IMR-32; assay: Cytotoxicity against Homo sapiens (human) IMR32 cells at 20 to 200 uM after 16 hr by MTT assay; format: functional, cell-based
[4] = tested on: IMR-32; assay: (§1) Cytotoxicity against Homo sapiens (human) IMR32 cells after 16 hr by MTT assay; format: functional, cell-based
[5] = tested on: IMR-32; assay: Cytotoxicity against Homo sapiens (human) IMR32 cells at 200 uM after 16 hr by MTT assay; format: functional
[6] = species on record: Homo sapiens; assay: Inhibition of tyrosine kinase (unknown origin)
[7] = molecular target: Cyclin-dependent kinase 2 (Homo sapiens) (UniProt P24941); assay: Destabilization of CDK2 in Homo sapiens (human) Jurkat cells by immunoblot analysis; format: cell-based
[8] = tested on: IMR-32; assay: Cell cycle arrest in Homo sapiens (human) IMR32 cells assessed as decrease of G1 phase cell accumulation at 20 to 200 uM by FACS analysis; format: functional, cell-based
[9] = molecular target: Mitogen-activated protein kinase 3 (Homo sapiens) (UniProt P27361); assay: Destabilization of ERK1 in Homo sapiens (human) IMR32 cells by immunoblot analysis; format: cell-based; details: IMR-32
Chain of Mitogen-activated protein kinase 3 (Homo sapiens) (P27361 whole entry): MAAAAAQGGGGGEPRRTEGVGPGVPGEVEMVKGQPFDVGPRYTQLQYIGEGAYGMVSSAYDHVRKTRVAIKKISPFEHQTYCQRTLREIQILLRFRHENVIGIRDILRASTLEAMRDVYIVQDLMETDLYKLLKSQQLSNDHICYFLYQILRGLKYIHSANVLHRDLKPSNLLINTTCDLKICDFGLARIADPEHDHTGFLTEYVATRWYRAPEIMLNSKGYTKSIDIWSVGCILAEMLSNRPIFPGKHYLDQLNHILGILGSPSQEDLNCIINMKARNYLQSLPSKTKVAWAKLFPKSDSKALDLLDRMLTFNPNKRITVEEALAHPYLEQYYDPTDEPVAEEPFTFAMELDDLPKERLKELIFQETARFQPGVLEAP

[10] = tested on: IMR-32; assay: Induction of endoplasmic reticulum stress in Homo sapiens (human) IMR32 cells assessed as Grp94 expression by immunoblot analysis; format: functional, cell-based
[11] = tested on: HeLa; assay: Cytotoxicity against Homo sapiens (human) HeLa cells after 16 hr by MTT assay; format: functional
[12] = tested on: Jurkat; assay: Cytotoxicity against Homo sapiens (human) Jurkat cells after 16 hr by MTT assay; format: functional
[13] = tested on: IMR-32; assay: as §1; format: functional
[14] = tested on: HeLa; assay: Induction of endoplasmic reticulum stress in Homo sapiens (human) HeLa cells assessed as Grp94 expression by immunoblot analysis; format: functional, cell-based
[15] = tested on: HeLa; assay: Cell cycle arrest in Homo sapiens (human) HeLa cells assessed as decrease of G2-M phase cell accumulation at 20 to 200 uM by FACS analysis; format: functional, cell-based
[16] = molecular target: Cyclin-dependent kinase 2 (Homo sapiens) (UniProt P24941); assay: Destabilization of CDK2 in Homo sapiens (human) HeLa cells by immunoblot analysis; format: cell-based
[17] = tested on: HeLa; assay: Cell cycle arrest in Homo sapiens (human) HeLa cells assessed as decrease of G1 phase cell accumulation at 20 to 200 uM by FACS analysis; format: functional, cell-based
[18] = tested on: Jurkat; assay: Induction of endoplasmic reticulum stress in Homo sapiens (human) Jurkat cells assessed as Grp94 expression by immunoblot analysis; format: functional, cell-based
[19] = tested on: Jurkat; assay: Cell cycle arrest in Homo sapiens (human) Jurkat cells assessed as decrease of G1 phase cell accumulation at 20 to 200 uM by FACS analysis; format: functional, cell-based
[20] = tested on: Jurkat; assay: Cell cycle arrest in Homo sapiens (human) Jurkat cells assessed as decrease of G2-M phase cell accumulation at 20 to 200 uM by FACS analysis; format: functional, cell-based
[21] = molecular target: Cyclin-dependent kinase 2 (Homo sapiens) (UniProt P24941); assay: Destabilization of CDK2 in Homo sapiens (human) IMR32 cells by immunoblot analysis; format: cell-based; details: IMR-32
[22] = molecular target: Mitogen-activated protein kinase 3 (Homo sapiens) (UniProt P27361); assay: Destabilization of ERK1 in Homo sapiens (human) HeLa cells by immunoblot analysis; format: cell-based
[23] = molecular target: Mitogen-activated protein kinase 3 (Homo sapiens) (UniProt P27361); assay: Destabilization of ERK1 in Homo sapiens (human) Jurkat cells by immunoblot analysis; format: cell-based

inhibition [6] | SMILES | Activity [1] | Activity [2] | Activity [3] | Activity [4] | Activity [8] | Activity [11] | Activity [12] | Activity [13] | Activity [15] | Activity [17] | Activity [19] | Activity [20] | further results
– | COc1c(-c2cc(-c3ccccc3)n(-c3ccc(C)cc3C)n2)ccc2occc12 | Non-toxic | inactive | inactive | – | – | – | – | – | – | – | – | – | –
– | COc1c(-c2cc(-c3ccccc3)n(-c3ccc(F)cc3)n2)ccc2occc12 | Non-toxic | inactive | – | Dose-dependent effect | – | – | – | – | – | – | – | – | –
– | COc1ccc(-n2nc(-c3ccc4occc4c3OC)cc2-c2ccccc2)cc1 | Non-toxic | inactive | inactive | – | – | – | – | – | – | – | – | – | –
inactive | COc1c(-c2cc(-c3ccccc3)n(-c3cccc(F)c3)n2)ccc2occc12 | Non-toxic | Active | – | Dose-dependent effect | Active | 28% | 35% | 86% | Active | Active | Active | Active | Activity [5]: 60%; Activity [7]: Active; Activity [9]: Active; Activity [10]: Active; Activity [14]: Active; Activity [16]: Active; Activity [18]: Active; Activity [21]: Active
– | COc1c(-c2cc(-c3ccccc3)n(-c3ccccc3)n2)ccc2occc12 | Non-toxic | inactive | inactive | – | – | – | – | – | – | – | – | – | –
inactive | COc1c(-c2cc(-c3ccccc3)n(-c3ccccc3F)n2)ccc2occc12 | Non-toxic | inactive | – | Dose-dependent effect | Active | 35% | 45% | 71% | Active | Active | Active | Active | Activity [5]: 60%; Activity [22]: Active; Activity [7]: Active; Activity [16]: Active; Activity [21]: Active
inactive | COc1c(-c2cc(-c3ccccc3)on2)ccc2occc12 | Non-toxic | Active | – | Dose-dependent effect | Active | 26% | 31% | 58% | Active | Active | Active | Active | Activity [5]: 60%; Activity [22]: Active; Activity [7]: Active; Activity [9]: Active; Activity [23]: Active; Activity [16]: Active; Activity [21]: Active
inactive | COc1c(C(=O)/C=C(\O)c2ccccc2)ccc2occc12 [PONGAMOL] | Non-toxic | Active | inactive | – | – | 23% | 17% | 38% | Active | Active | Active | Active | Activity [10]: Active; Activity [14]: Active; Activity [18]: Active
– | COc1c(-c2cc(-c3ccccc3)n(-c3ccc([N+](=O)[O-])cc3[N+](=O)[O-])n2)ccc2occc12 | Non-toxic | inactive | – | Dose-dependent effect | – | – | – | – | – | – | – | – | –
– | COc1c(-c2cc(-c3ccccc3)[nH]n2)ccc2occc12 | Non-toxic | inactive | – | Dose-dependent effect | – | – | – | – | – | – | – | – | –
– | COc1c(-c2cc(-c3ccccc3)n(-c3ccc(Cl)cc3Cl)n2)ccc2occc12 | Non-toxic | inactive | inactive | – | – | – | – | – | – | – | – | – | –
– | COc1c(-c2cc(-c3ccccc3)n(-c3cccc([N+](=O)[O-])c3)n2)ccc2occc12 | Non-toxic | inactive | – | Dose-dependent effect | – | – | – | – | – | – | – | – | –
– | COc1c(-c2cc(-c3ccccc3)n(-c3ccccc3C)n2)ccc2occc12 | Non-toxic | inactive | – | Dose-dependent effect | Active | – | – | – | – | – | – | – | –
